In patent US20220193029A1, “BRYOSTATIN COMPOUNDS FOR ENHANCEMENT OF IMMUNOTHERAPY” (priority 2019, published 2022):

Experiments:
[1] = test system: CD22 surface expression in JB cells; experiment: CD22 surface expression assay, AIDS-NHL cell line JB; settings: 1 nM or 10 nM, 48 hours
Method: (§10) AIDS-NHL cell lines were incubated in IF10 medium, consisting of IMDM medium (Life technologies) containing 10% fetal bovine serum (FBS, Omega Scientific), 100 units/mL of penicillin, and 100 μg/ml of streptomycin (Invitrogen). Cells were incubated at 37° C. in 5% CO2.
(§11) Cells were exposed to compound for the either 24 or 48 h before staining and flow cytometric analysis of receptor levels.
(§12) Cells in each well were washed with phosphate buffered saline (PBS) containing 2% FBS, then cells were centrifuged for 9 min at 233 xg and resuspended in 50 μL of a 1:1 dilution of phosphate buffered saline (PBS): Human AB serum (Sigma). […] Stained samples were stored at 4° C. Flow cytometry samples were analyzed using a FACSCelesta (BD Biosciences) flow cytometer and data were analyzed using FlowJo software (version 10).
(§13) Panel C: JB cells were incubated with 1 nM (left hand bars) or 10 nM (right hand bars) of compound for 48 hours. CD22 surface expression was then assayed by flow cytometry (n=6 biological replicates; data presented as mean values ±SE). Panel D: 2F7 cells were incubated with 1 nM (left hand bars) or 10 nM (right hand bars) of compound for 48 hours. CD22 surface expression was then assayed by flow cytometry (n=6 biological replicates; data presented as mean values ±SE).

NALM6 tumor cells = experiment: NSG mice with NALM6 tumor cells treated with CD22 CAR T cells plus bryostatin 1; settings: NALM6 tumor cells day 0, CD22 CAR day 3, bryostatin 1 three times weekly for 2 weeks
From the text: Mice were imaged using IVIS™ technology and luciferin-D IP injections.

PKCα = target: T1, PKCα (Homo sapiens, UniProt P17252); experiment: cell-free competitive PKC binding assay with [3H]-phorbol dibutyrate; settings: competition with [3H]-PDBu, recombinant human PKC isoform
T1 construct: purchased Invitrogen
Method: (§1) Because a prerequisite for PKC pathway involvement is binding to PKC, compounds were initially evaluated for PKC affinity in a cell-free competitive binding assay with tritiated phorbol dibutyrate ([^3H]-PDBu). Assays were performed with representative members of both the conventional (PKCα) and novel (PKCδ) PKC families. Subsequently, compounds were assayed for PKC activation in living cells using an isoform translocation assay.
(§2) To a 50 mL polypropylene tube was added Tris-HCl (pH 7.4, 1 M, 1 mL), KCl (1 M, 2 mL), CaCl2) (0.1 M, 30 μL), and bovine serum albumin (BSA, 40 mg, Sigma-Aldrich). This mixture was diluted to 20 mL with deionized H2O and mixed gently. The buffer was stored on ice until use.
(§3) For every two assays, 3.5 mg phosphatidylserine (Avanti Polar Lipids, porcine, 25 mg/mL CHCl3 solution) was concentrated by removing chloroform under a stream of nitrogen followed by reduced pressure. The solid PS was suspended as vesicles in freshly prepared PKC binding assay buffer (3.5 mL) by sonicating six times for 30 sec, with a 30 sec rest between sonications (Branson Sonifier 250, power=2, 50% duty cycle). The resulting milky cloudy mixture (1 mg/mL) was stored on ice until use.
(§4) Assay PKC was prepared by dissolving a 4 μg aliquot of the indicated recombinant human PKC isoform (Invitrogen) into 11.6 mL of PKC binding assay buffer (this amount is sufficient for two assays). The diluted PKC was stored on ice for immediate use.
(§5) ^3H-PDBu (American Radiolabeled Chemicals, Inc.; 1 mCi/mL acetone solution; specific activity: 20 Ci/mmol) was diluted […] with DMSO. The resulting 500 nM stock solution was further diluted with DMSO to 30 nM.
(§6) Compound dilutions were prepared by serially diluting from a chosen “high” concentration by factors of 3 or 4.
(§7) To a polypropylene tube was added 3.3 mL of 1 mg/mL PS vesicles solution, 11 mL of PKC isoform solution, and 1.1 mL of 30 nM ^3H-PDBu solution were added. The resulting solution was vortexed to mix and stored on ice.
(§8) Materials: • Glass-fiber filters (Whatman GF/B) were prepared by soaking them in a solution of aqueous polyethyleneimine (10% by vol, 18 mL) in deionized water (600 mL) for ≥1 h. • 500 mL “rinsing buffer” of 20 mM Tris, pH 7.4 was cooled on ice for the duration of the incubation period and for the remainder of the assay.
(§9) Triplicate data points were obtained for each analog concentration. For each data point, 280 μL of “Master Mix” Solution and 20 μL of analog compound at a specified concentration were added to a polypropylene tube. […] Maximal ^3H-PDBu binding was assessed in triplicate by substitution of the analog compound with 20 μL DMSO. The solutions were vortexed to mix, incubated at 37° C. for 10 min, and incubated on ice for at least 30 min prior to filtration. Using a Brandel Harvester, the assay contents from each polypropylene tube were vacuum-filtered through polyethylenimine-soaked filters, washing with rinsing buffer (3×) and drying first under vacuum for 5 min and then under ambient conditions for ≥2 h. The resulting filters had circular perforations for each data point, which were removed with forceps and placed in a scintillation vial. Scintillation vials were filled with Bio-Safe II scintillation fluid (5 mL) and measured for radioactivity using a Beckman LS 6000SC scintillation counter. Counts per minute (cpm) were averaged for each triplicate dilution. The data were plotted—cpm vs. log(concentration)—using Prism® by GraphPad Software and an IC50 was determined using that program's built-in one-site competition least squares regression function. Ki values were calculated using the equation: Ki=IC50/(1+([3H−PDBu]/Kd)). The Kd of ^3H-PDBu for PKC isoforms was measured separately via saturation binding experiments under identical conditions.

PKC = experiment: cell-free PKC binding assay, isoform not given; design: species or system human
Method: as §1, §4, §9

[2] = test system: CD22 surface expression in 2F7 cells; experiment: CD22 surface expression assay, AIDS-NHL cell line 2F7; settings: 1 nM or 10 nM, 48 hours
Method: as §10, §11, §12, §13

[3] = test system: CD22 surface expression in NALM6 cells; experiment: CD22 surface expression assay by flow cytometry; assay type: cell-based, human
Method: Cell cultures were maintained between 4×10^5 and 3×10^6 cells/mL according to vendor instructions.
Cell suspension from a confluent T75 flask (Fisher) was transferred to a 15 mL falcon tube and centrifuged at 1100 rpm for 7 minutes. […] Cells were counted using a Countess II Automated Cell Counter (Fisher). […] 199 μL of this stock was added to 24 wells (enough for triplicate measurements for 8 different experimental conditions) in a 96-well plate. […] 1 μL of DMSO or the appropriate stock solution of compound in DMSO was added to each well. Cells were incubated for 24 hours, at which point the cell suspensions were transferred to 1.5 mL Eppendorf tubes and diluted with 1.0 mL of PBS (Hyclone, without Ca^2+ or Mg^2+). Samples were centrifuged at 2000 rpm for 5 min at RT. […] Cells were sub-cultured between 2×10^5 and 3×10^6 cells/mL in 24-well plates for an additional 24 hrs-7 days, at which point CD22 surface expression was assayed by flow cytometry.
Cells from one well were counted using a Countess II Automated Cell Counter (Fisher). ˜200,000-300,000 cells from each well were added to 1.5 mL Eppendorf tubes containing PBS (final volume ˜1.2 mL). The cell suspensions were centrifuged at 1500 rpm for 7 minutes at 4° C. The supernatant was aspirated, and the cell pellet was resuspended in 99 μL of pre-chilled FACS buffer (0.5% w/v BSA in PBS). […] Samples were then diluted with an additional 1.0 mL of FACS buffer and centrifuged at 1500 rpm for 7 minutes at 4° C. […] Cells were stained with DAPI and CD22 surface expression was analyzed using the FACScan Analyzer at the Stanford Shared FACS Facility. Data analysis was performed using FlowJo and Microsoft Excel.

PKCδ = target: T2, PKCδ (Homo sapiens, UniProt Q05655); experiment: cell-free competitive PKC binding assay with [3H]-phorbol dibutyrate; settings: competition with [3H]-PDBu, recombinant human PKC isoform
T2 construct: purchased Invitrogen
Method: as §1, §2, §3, §4, §5, §6, §7, §8
Triplicate data points were obtained for each analog concentration. For each data point, 280 μL of “Master Mix” Solution and 20 μL of analog compound at a specified concentration were added to a polypropylene tube. […] Maximal ^3H-PDBu binding was assessed in triplicate by substitution of the analog compound with 20 μL DMSO. The solutions were vortexed to mix, incubated at 37° C. for 10 min, and incubated on ice for at least 30 min prior to filtration. Using a Brandel Harvester, the assay contents from each polypropylene tube were vacuum-filtered through polyethylenimine-soaked filters, washing with rinsing buffer (3×) and drying first under vacuum for 5 min and then under ambient conditions for ≥2 h. The resulting filters had circular perforations for each data point, which were removed with forceps and placed in a scintillation vial. Scintillation vials were filled with Bio-Safe II scintillation fluid (5 mL) and measured for radioactivity using a Beckman LS 6000SC scintillation counter. Counts per minute (cpm) were averaged for each triplicate dilution. The data were plotted—cpm vs. log(concentration)—using Prism® by GraphPad Software and an IC50 was determined using that program's built-in one-site competition least squares regression function. […] The Kd of ^3H-PDBu for PKC isoforms was measured separately via saturation binding experiments under identical conditions.

PKCδ-GFP fusion protein = experiment: PKCδ-GFP translocation assay in living CHO-k1 cells (confocal microscopy); assay type: cell-based, Chinese hamster
Method: as §1
Chinese hamster ovary factor K1 (CHO-k1, ATCC) cells were cultured in F-12 Kaighn's media (Hyclone, 10% fetal bovine serum, 1% penicillin/streptomycin added, referred to as F-12+/+ below) at 37° C. in an incubator (5% CO2). Cell cultures were maintained by splitting cells 1:3 when they reached ˜75-100% confluence (every 2-3 days) as follows:
1 mL of the cell suspension was then added to 9 mL of fresh F-12+/+ and the sample was sub-cultured until reaching confluence (˜2-3 days).
Cells were counted using a Countess II Automated Cell Counter (Fisher). The cell suspension was diluted to 240,000 cells/mL with fresh F-12+/+ and 2.5 mL of this diluted stock was added to one well in a 6-well plate. The cells were then cultured for 24 hours.
F-12+/+ was aspirated and cells were washed with F-12−/−. 2 mL of fresh F-12−/− was then added to each well, taking care not to disturb adherent cells. For each well of CHO-k1 cells, 12.5 μL Lipofectamine 2000 reagent (Invitrogen) was added to 250 μL Opti-MEM reduced serum media (Invitrogen) in a polypropylene tube and incubated for 20 minutes at RT. Meanwhile, for each well, 4 μg of PKCδ-GFP pDNA and 250 μL Opti-MEM reduced serum media was added to a separate polypropylene tube. 250 μL of the Lipofectamine 2000 suspension was added to the DNA suspension and the solution incubated for 30 minutes at RT. 500 μL of the Lipofectamine/DNA suspension was added to the respective wells of the 6-well plate. The cells were then incubated at 37° C. (5% CO2) for ˜24 hrs.
F-12+/+ was aspirated and cells were washed with F-12−/−. 2.4 mL of fresh F-12−/− was then added to each well, taking care not to disturb adherent cells. A 4 μg aliquot of PKCδ-GFP pDNA was added to PBS (pH 5.5, final volume 100 μL). 5.6 μL of DA 13:11 (2 mM stock in DMSO) was then added to the DNA solution, and the mixture was gently mixed (by flicking) for 20 seconds, at which point it was added directly to the respective wells of the 6-well plate. The cells were then incubated at 37° C. (5% C02) for ˜24 hrs.
After incubation, the media was aspirated and cells were washed with PBS (2.0 mL) and trypsinized (500 μL). The cell suspension was then diluted with 2.0 mL F-12+/+. 200 μL aliquots were added to 3 wells of a Lab-Tek II 4-well chambered coverglass slide (Fisher), producing 4 slides in total, each with three wells of cells. The cell suspension was directly diluted with 600 μL of additional F-12+/+. The resulting samples were incubated for ˜24 hrs. prior to imaging.
Fluorescent images were obtained using a Leica SP8 White Light Confocal microscope and the Leica AF software package. Prior to analysis, media was aspirated and 800 μL of PBS (Hyclone, without Ca^2+ or Mg^2+) supplemented with glucose (10 mM) was added to each well of the chambered coverglass slide. Bryostatin and bryostatin analogs were diluted to the appropriate concentration in 200 μL of 10 mM glucose in PBS. Cells were located for imaging and data was recorded for three wells in parallel, imaging at predetermined positions in each well using adaptive focus control. Cells were imaged at 30 second intervals following the addition of compound (set to t=0) for 20-40 minutes. Data were recorded at room temperature. Images were exported as .lif files and fluorescence intensity was analyzed using FIJI (NIH) software.

T2 sequence (Q05655 whole entry, canonical isoform): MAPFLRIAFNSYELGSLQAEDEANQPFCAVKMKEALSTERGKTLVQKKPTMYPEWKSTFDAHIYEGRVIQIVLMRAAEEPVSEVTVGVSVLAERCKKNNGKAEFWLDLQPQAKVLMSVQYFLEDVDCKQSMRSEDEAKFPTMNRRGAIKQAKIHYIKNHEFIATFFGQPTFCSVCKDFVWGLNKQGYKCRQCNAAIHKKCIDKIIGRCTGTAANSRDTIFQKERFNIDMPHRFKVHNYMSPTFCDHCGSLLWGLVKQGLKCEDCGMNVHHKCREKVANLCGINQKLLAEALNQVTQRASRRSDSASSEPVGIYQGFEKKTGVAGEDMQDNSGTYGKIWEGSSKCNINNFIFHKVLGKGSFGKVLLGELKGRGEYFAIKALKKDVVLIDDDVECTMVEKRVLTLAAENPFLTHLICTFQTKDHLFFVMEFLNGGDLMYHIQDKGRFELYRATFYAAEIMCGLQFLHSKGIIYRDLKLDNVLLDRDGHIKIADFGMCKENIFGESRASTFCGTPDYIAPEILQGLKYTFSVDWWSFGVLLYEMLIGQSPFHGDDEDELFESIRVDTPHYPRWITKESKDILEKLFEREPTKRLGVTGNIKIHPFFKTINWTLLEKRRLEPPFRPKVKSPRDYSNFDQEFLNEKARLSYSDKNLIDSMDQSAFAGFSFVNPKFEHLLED

| Structure (SMILES) | upregulated CD22 surface expression [1] | durability of response to CD22 CAR T cell treatment (NALM6 tumor cells) | Ki (PKCα) | binding affinity to PKC, in words (PKC) | upregulated CD22 surface expression [2] | time for which increased CD22 surface expression was sustained following treatment ([3]; 10 nM for 24 hours, then washed out and sub-cultured) | increase in CD22 surface density ([3]; NALM6 cells incubated 24 hours, flow cytometry) | Ki (PKCδ) | activity in the PKC translocation assay at 200 nM (PKCδ-GFP fusion protein; 200 nM) | cytosolic PKC translocated to the plasma membrane (PKCδ-GFP fusion protein; 1000 nM, at about 5 minutes) | concentration* (minimum effective concentration required to induce translocation of PKC-GFP to the membrane) (PKCδ-GFP fusion protein; CHO-k1 cells) | % Translocation (PKCδ-GFP fusion protein; maximum translocation of PKCδ-GFP to the plasma membrane at the concentration printed in the same cell, CHO-k1 cells, SUW212: only brief translocation observed) |
| --- | --- | --- | --- | --- | --- | --- | --- | --- | --- | --- | --- | --- |
| CCC/C=C/C=C/C(=O)O[C@H]1/C(=C/C(=O)OC)C[C@H]2C[C@H]([C@@H](C)O)OC(=O)C[C@H](O)C[C@@H]3C[C@H](OC(C)=O)C(C)(C)[C@](O)(C[C@@H]4C/C(=C/C(=O)OC)C[C@H](/C=C/C(C)(C)[C@]1(O)O2)O4)O3 [Bryostatin 1, reference compound] | ~2 fold | improves durability of response | 0.8 nM | single digit nanomolar binder | ~2 fold | up to 7 days | > 2 fold |  |  |  |  |  |
| CCCC=CC=CC(=O)OC1C(=CC(=O)OC)CC2CC(C(C)O)OC(=O)CC(O)CC3CC(OC(C)=O)C(C)(C)C(O)(CC4CC(OC(=O)CCc5c[nH]c6ccccc56)CC(C=CC(C)(C)C1(O)O2)O4)O3 (centres unmarked) [SUW210] |  |  | 5.6 nM | high affinity PKC binders |  |  |  | 7.3 nM | inactive | ~70% | 1000 nM | 75% |
| CCCC=CC=CC(=O)OC1C(=CC(=O)OC)CC2CC(C(C)O)OC(=O)CC(O)CC3CC(OC(C)=O)C(C)(C)C(O)(CC4CC(=CC(=O)OC)CC(C=CC(C)(C)C1(O)O2)O4)O3 (centres unmarked) [SUW201] | ~2 fold |  | 0.54 nM |  | ~2 fold |  |  |  |  |  |  |  |
